Laboratory results published in patent publication US20250074943A1, “DLL3 BINDING PEPTIDES AND USES THEREOF” (AMGEN INC., priority 2021, published 2025).
Numbered stars: 1 amine (or outer) side, 2 acyl side, 3 side chain; on linkers, the order of the positions; unused ones are H or OH. Bridge positions count the residues as written; N and C are the ends. Square brackets hold non-standard residues; d marks the D form. Peptide text beside a SMILES is read from it. * marks the point of attachment. X13 = NCCCOCCOCCOCCCNC(=O)CCC(=O)NCCCOCCOCCOCCCNC(=O)CCC(=O)NCCCC[C@H](NC(=O)CCC(=O)NCCCOCCOCCOCCCN*)C(N)=O; X6 = CCOCCOCCOCCOCc1cn(CCCC[C@@H]2CC(=O)C(CC(=O)NCCCOCCOCCOCCCN*)NC2=O)nn1; X11 = NCCCC[C@H](NC(=O)CCC(=O)NCCCOCCOCCOCCCN*)C(N)=O; X4 = CC(C(=O)CN[*:1])[C@@H](C(=O)[*:2])[C@H](C)O; X5 = O=C([C@@H](CC1=CCc2ccccc21)N[*:1])[*:2]; Isobutyryl = CC(C)C(=O)*

Tests used:
DLL3 = target: T1, DLL3 (Homo sapiens, UniProt Q9NYJ7); assay: Binding of peptides with linkers and/or fluorescent agent to DLL3 (BLI, SPR; Table 6)
T1 construct: The recombinant DLL3 ectodomain (rhDLL3-Fc) was biotinylated; Fc
T1 sequence (Q9NYJ7 27-492 limits assumed): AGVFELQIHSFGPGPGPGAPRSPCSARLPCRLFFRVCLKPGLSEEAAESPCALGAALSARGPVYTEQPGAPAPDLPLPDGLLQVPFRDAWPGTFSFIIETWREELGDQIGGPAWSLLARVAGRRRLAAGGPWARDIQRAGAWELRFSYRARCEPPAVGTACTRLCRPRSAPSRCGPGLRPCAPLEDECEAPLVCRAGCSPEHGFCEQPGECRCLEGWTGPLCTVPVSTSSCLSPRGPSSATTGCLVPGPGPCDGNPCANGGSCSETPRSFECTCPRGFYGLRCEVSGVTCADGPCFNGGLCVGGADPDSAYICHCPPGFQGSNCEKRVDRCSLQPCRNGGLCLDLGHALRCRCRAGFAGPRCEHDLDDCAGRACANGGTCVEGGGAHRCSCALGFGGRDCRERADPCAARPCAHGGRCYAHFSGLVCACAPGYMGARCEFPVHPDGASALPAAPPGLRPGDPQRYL
Method: (§1) Binding kinetic assays were performed using Bio-layer interferometry (BLI) technology. The recombinant DLL3 ectodomain (rhDLL3-Fc) was biotinylated using EZ-Link Sulfo-NHS-LC-LC-Biotin Kit according to the manufacturer's protocol (Pierce by Thermo Fisher Scientific). The recombinant protein was incubated with an excess of NHS-LC-LC Biotin ester, in a molar ratio of 1:3 (protein: biotin), at 25° C. for 90 min. The un-reacted biotin ester was removed by subsequent buffer exchange on 0.5 ml Zeba spin desalting columns 7K MWCO (Pierce by Thermo Fisher Scientific).
The off-rate screening of the peptides was done using a Biacore T200 instrument (Cytiva, Sweden). […] Peptides were diluted at 300 nM in PBS-P+1× buffer (Cytiva, Sweden) supplemented with 1% DMSO and 0.1% BSA, then injected over the ligand for five minutes at 30 μl/min, finally dissociation allowed for 1 h. Sensorgrams were analyzed by Biacore T200 Evaluation Software 3.0 (Cytiva, Sweden): specific binding was obtained by subtracting unspecific binding to naked biosensors and a zero analyte concentration made of binding assay buffer (double referencing). Kinetic parameters of koff were measured using a global fitting according to 1:1 Langmuir binding isotherm equation.

rhDLL3-Fc = target: T2, rhDLL3-Fc (Homo sapiens, UniProt Q9NYJ7); assay: SPR binding / off-rate screening (Biacore T200); conditions: Table 7, curve fitting of SPR sensorgrams; for koff: read-out: koff; for kon: read-out: kon
T2 construct: The recombinant DLL3 ectodomain (rhDLL3-Fc) was biotinylated; Fc
T2 sequence (Q9NYJ7 27-492 limits assumed): T1 sequence (Q9NYJ7 27-492 limits assumed)
Method: as §1, with “Binding kinetic assays were performed using Bio-layer interferometry (BLI) technology.” left out
The off-rate screening of the peptides was done using a Biacore T200 instrument (Cytiva, Sweden). […] Sensorgrams were analyzed by Biacore T200 Evaluation Software 3.0 (Cytiva, Sweden): specific binding was obtained by subtracting unspecific binding to naked biosensors and a zero analyte concentration made of binding assay buffer (double referencing). […]

[1] = target: T3, native huDLL3 on the surface of cells (CHO cells) (Homo sapiens, UniProt Q9NYJ7); assay: Flow cytometry competition with AF647-labelled peptide; assay type: cell-based; conditions: for efficiency in competing the binding of the AF647-labelled PepSP1146: compared with monomer PepSP1146
T3 construct: expressed in transfected cells; host or cells: CHO (CHO-huDLL3)
T3 sequence (Q9NYJ7 27-618): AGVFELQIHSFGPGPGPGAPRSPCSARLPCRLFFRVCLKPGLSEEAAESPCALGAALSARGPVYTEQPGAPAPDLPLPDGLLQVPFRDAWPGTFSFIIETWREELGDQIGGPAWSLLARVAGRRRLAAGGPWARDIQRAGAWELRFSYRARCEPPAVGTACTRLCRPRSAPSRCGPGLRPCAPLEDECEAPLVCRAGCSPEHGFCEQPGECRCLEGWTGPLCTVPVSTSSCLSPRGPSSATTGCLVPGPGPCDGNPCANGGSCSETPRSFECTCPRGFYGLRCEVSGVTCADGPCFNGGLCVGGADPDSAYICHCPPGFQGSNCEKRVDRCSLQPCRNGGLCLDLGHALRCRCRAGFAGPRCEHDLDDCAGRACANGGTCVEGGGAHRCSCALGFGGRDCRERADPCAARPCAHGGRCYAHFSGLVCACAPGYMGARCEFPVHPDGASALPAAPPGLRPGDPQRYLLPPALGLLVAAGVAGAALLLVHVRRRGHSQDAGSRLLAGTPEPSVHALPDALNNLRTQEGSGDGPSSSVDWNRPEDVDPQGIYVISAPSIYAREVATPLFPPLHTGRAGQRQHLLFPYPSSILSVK
Method: HEK293-huDLL3, CHO-huDLL3 and the corresponding parental cell lines were detached with EDTA 2.5 mM and re-suspended at 1.8×10^6 cells/ml in FACS buffer (1×PBS, 2% FBS), distributed at 500 μl per testing tube and pelleted 5 min at 1300 rpm in a Heraeus Multifuge […] centrifuge.

Work on `CC(=O)N[C@@H](C)C(=O)N[C@@H](CCC(=O)O)C(=O)N[C@H](C(=O)N[C@H](C(=O)N[C@@H](CCC(=O)O)C(=O)N[C@@H](Cc1ccccc1)C(=O)N[C@@H](Cc1c[nH]c2ccccc12)C(=O)N[C@@H](Cc1c[nH]c2ccccc12)C(=O)N[C@H]1CSSC[C@@H](C(=O)N[C@H](C(=O)N[C@@H](Cc2c[nH]c3ccccc23)C(=O)NCC(=O)NCC(=O)NCCCOCCOCCOCCCNC(=O)CCC(=O)N[C@@H](CCCCNC(=O)CCC(=O)NCCCOCCOCCOCCCNC(=O)CCC(=O)NCCCOCCOCCOCCCN)C(N)=O)[C@@H](C)O)NC(=O)[C@H]([C@@H](C)O)NC(=O)[C@H](Cc2c[nH]c3ccccc23)NC(=O)[C@H](CC(N)=O)NC(=O)[C@H](CCC(=O)O)NC(=O)[C@H](CO)NC(=O)[C@H](CC(N)=O)NC(=O)CNC(=O)[C@H](CC(N)=O)NC1=O)C(C)C)[C@@H](C)O` [PepSP1342] (Ac-AETVEFWWCNGNSENWTCTWGG-X13; disulfide 9-18 (inferred)) yielded a Kd (DLL3) of 42 ± 8 nM and an RT (DLL3) of 198.9 ± 41.1.

For `CC(C)[C@H](NC(=O)[C@@H](NC(=O)[C@H](CCC(=O)O)NC(=O)[C@H](C)N)[C@@H](C)O)C(=O)N[C@@H](CCC(=O)O)C(=O)N[C@@H](Cc1ccccc1)C(=O)N[C@@H](Cc1c[nH]c2ccccc12)C(=O)NCC(=O)N[C@H]1CSSC[C@@H](C(=O)N[C@@H](Cc2c[nH]c3ccccc23)C(=O)N[C@@H](Cc2c[nH]c3ccccc23)C(=O)NCCCOCCOCCOCCCNC(=O)CCC(=O)N[C@@H](CCCCn2cc(COCCOCCOCCOCCOCCOCCOCCOCCOCCOCCOCCOCCOCCOCc3cn(CCCC[C@H](NC(=O)CCC(=O)NCCCOCCOCCOCCCNC(=O)[C@H](Cc4c[nH]c5ccccc45)NC(=O)[C@H](Cc4c[nH]c5ccccc45)NC(=O)[C@@H]4CSSC[C@H](NC(=O)CNC(=O)[C@H](Cc5c[nH]c6ccccc56)NC(=O)[C@H](Cc5ccccc5)NC(=O)[C@H](CCC(=O)O)NC(=O)[C@@H](NC(=O)[C@@H](NC(=O)[C@H](CCC(=O)O)NC(=O)[C@H](C)N)[C@@H](C)O)C(C)C)C(=O)N[C@@H]([C@@H](C)O)C(=O)NCC(=O)N[C@@H]([C@@H](C)O)C(=O)N[C@@H](Cc5c[nH]c6ccccc56)C(=O)NCC(=O)N[C@@H](CC(N)=O)C(=O)N[C@@H](CCC(=O)O)C(=O)N[C@@H]([C@@H](C)O)C(=O)N4)C(N)=O)nn3)nn2)C(N)=O)NC(=O)[C@H]([C@@H](C)O)NC(=O)[C@H](CCC(=O)O)NC(=O)[C@H](CC(N)=O)NC(=O)CNC(=O)[C@H](Cc2c[nH]c3ccccc23)NC(=O)[C@H]([C@@H](C)O)NC(=O)CNC(=O)[C@H]([C@@H](C)O)NC1=O` [PepSP1271], the Kd (rhDLL3-Fc) was 3 nM, the koff (rhDLL3-Fc) was 0.00028 s⁻¹ and the kon (rhDLL3-Fc) was 104000 M⁻¹ s⁻¹. The IC50 [1] was 10 nM and the “efficiency in competing the binding of the AF647-labelled PepSP1146” value (shortened to “efficiency in competing the binding”) [1] was “higher efficiency”.

`CC(=O)N[C@@H](C)C(=O)N[C@@H](CCC(=O)O)C(=O)N[C@H](C(=O)N[C@H](C(=O)N[C@@H](CCC(=O)O)C(=O)N[C@@H](Cc1ccccc1)C(=O)N[C@@H](Cc1c[nH]c2ccccc12)C(=O)N[C@@H](Cc1c[nH]c2ccccc12)C(=O)N[C@H]1CSSC[C@@H](C(=O)N[C@H](C(=O)N[C@@H](Cc2c[nH]c3ccccc23)C(=O)NCC(=O)NCC(=O)NCCCOCCOCCOCCCNC(=O)CCC(=O)N[C@@H](CCCCN)C(N)=O)[C@@H](C)O)NC(=O)[C@H]([C@@H](C)O)NC(=O)[C@H](Cc2c[nH]c3ccccc23)NC(=O)[C@H](CC(N)=O)NC(=O)[C@H](CCC(=O)O)NC(=O)[C@H](CO)NC(=O)[C@H](CC(N)=O)NC(=O)CNC(=O)[C@H](CC(N)=O)NC1=O)C(C)C)[C@@H](C)O` [PepSP1324] (Ac-AETVEFWWCNGNSENWTCTWGG-X11; disulfide 9-18 (inferred)) was tested, and the Kd (DLL3) was 29 ± 16 nM and the RT (DLL3) was 189.3 ± 73^.

For `CCOCCOCCOCCOCc1cn(CCCC[C@@H]2CC(=O)C(CC(=O)NCCCOCCOCCOCCCNC(=O)[C@@H](Cc3c[nH]c4ccccc34)NC(=O)[C@@H](CC3=CCc4ccccc43)NC(=O)[C@H]3CSSC[C@@H](NC(=O)CNC(=O)[C@@H](Cc4c[nH]c5ccccc45)NC(=O)[C@@H](Cc4ccccc4)NC(=O)[C@@H](CCC(=O)O)NC(=O)[C@H](NC(=O)[C@H](NC(=O)[C@@H](CCC(=O)O)NC(=O)C(C)C)[C@H](C)O)C(C)C)C(=O)N[C@H]([C@H](C)O)C(=O)NCC(=O)C(C)[C@H]([C@H](C)O)C(=O)N[C@H](Cc4c[nH]c5ccccc45)C(=O)NCC(=O)N[C@H](CC(N)=O)C(=O)N[C@H](CCC(=O)O)C(=O)N[C@H]([C@H](C)O)C(=O)N3)NC2=O)nn1` (some centres unmarked) [PepSP1272] (Isobutyryl-[dE][dT][dV][dE][dF][dW]G[dC][dT][X4][dW]G[dN][dE][dT][dC][X5][dW]-X6; disulfide 8-16), the koff (rhDLL3-Fc) was 5.5e-05 s⁻¹, the kon (rhDLL3-Fc) was 90000 M⁻¹ s⁻¹ and the “efficiency in competing the binding” value [1] was “higher efficiency”.

`CC(C)[C@H](NC(=O)[C@@H](NC(=O)[C@H](CCC(=O)O)NC(=O)[C@H](C)N)[C@@H](C)O)C(=O)N[C@@H](CCC(=O)O)C(=O)N[C@@H](Cc1ccccc1)C(=O)N[C@@H](Cc1c[nH]c2ccccc12)C(=O)NCC(=O)N[C@H]1CSSC[C@@H](C(=O)N[C@@H](Cc2c[nH]c3ccccc23)C(=O)N[C@@H](Cc2c[nH]c3ccccc23)C(=O)NCCCOCCOCCOCCCNC(=O)CCC(=O)N[C@@H](CCCCn2cc(COCCOCCOCCOCCOCCOCc3cn(CCCC[C@H](NC(=O)CCC(=O)NCCCOCCOCCOCCCNC(=O)[C@H](Cc4c[nH]c5ccccc45)NC(=O)[C@H](Cc4c[nH]c5ccccc45)NC(=O)[C@@H]4CSSC[C@H](NC(=O)CNC(=O)[C@H](Cc5c[nH]c6ccccc56)NC(=O)[C@H](Cc5ccccc5)NC(=O)[C@H](CCC(=O)O)NC(=O)[C@@H](NC(=O)[C@@H](NC(=O)[C@H](CCC(=O)O)NC(=O)[C@H](C)N)[C@@H](C)O)C(C)C)C(=O)N[C@@H]([C@@H](C)O)C(=O)NCC(=O)N[C@@H]([C@@H](C)O)C(=O)N[C@@H](Cc5c[nH]c6ccccc56)C(=O)NCC(=O)N[C@@H](CC(N)=O)C(=O)N[C@@H](CCC(=O)O)C(=O)N[C@@H]([C@@H](C)O)C(=O)N4)C(N)=O)nn3)nn2)C(N)=O)NC(=O)[C@H]([C@@H](C)O)NC(=O)[C@H](CCC(=O)O)NC(=O)[C@H](CC(N)=O)NC(=O)CNC(=O)[C@H](Cc2c[nH]c3ccccc23)NC(=O)[C@H]([C@@H](C)O)NC(=O)CNC(=O)[C@H]([C@@H](C)O)NC1=O` [PepSP1270] showed a Kd (rhDLL3-Fc) of 3 nM, a koff (rhDLL3-Fc) of 0.00024 s⁻¹ and a kon (rhDLL3-Fc) of 74300 M⁻¹ s⁻¹. For the same compound, the IC50 [1] was 15.3 nM and the “efficiency in competing the binding” value [1] was “higher efficiency”.
